Values of other authors as cited in patent US20080089844A1 (priority 2002, published 2008).

Biological target: F425G Shaker mutation (Drosophila melanogaster, UniProt P08510, F425G)
Details: cited from earlier work

F425G Shaker mutation, sequence (P08510 whole entry F425G, looked up): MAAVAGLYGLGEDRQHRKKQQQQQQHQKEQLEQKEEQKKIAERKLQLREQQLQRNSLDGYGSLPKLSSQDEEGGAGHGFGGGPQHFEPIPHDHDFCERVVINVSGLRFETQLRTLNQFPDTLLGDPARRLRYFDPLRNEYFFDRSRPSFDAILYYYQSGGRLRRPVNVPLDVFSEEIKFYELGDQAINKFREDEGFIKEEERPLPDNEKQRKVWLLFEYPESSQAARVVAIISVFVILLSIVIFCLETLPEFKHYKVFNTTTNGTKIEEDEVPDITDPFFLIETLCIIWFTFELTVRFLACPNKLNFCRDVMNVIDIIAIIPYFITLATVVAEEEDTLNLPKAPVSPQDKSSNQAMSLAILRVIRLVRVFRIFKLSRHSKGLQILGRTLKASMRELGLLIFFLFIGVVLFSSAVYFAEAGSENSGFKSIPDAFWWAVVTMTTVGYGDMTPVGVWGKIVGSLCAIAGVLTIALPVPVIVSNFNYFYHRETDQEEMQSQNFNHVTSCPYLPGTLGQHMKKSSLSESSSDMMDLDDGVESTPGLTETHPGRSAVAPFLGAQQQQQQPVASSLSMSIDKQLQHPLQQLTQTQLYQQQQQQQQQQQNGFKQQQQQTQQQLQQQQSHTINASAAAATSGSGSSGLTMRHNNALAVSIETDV

For charybdotoxin [reference compound], the “effect of F425G Shaker mutation on charybdotoxin affinity” value is given as “increases charybdotoxin affinity by three orders of magnitude”.
